According to ChEMBL document CHEMBL1158459, “Discovery of a peroxisome proliferator activated receptor gamma (PPARgamma) modulator with balanced PPARalpha activity for the treatment of type 2 diabetes and dyslipidemia” (J Med Chem, 2009):
Activity calls are given as the source filed them. No cut-off for these calls is given here.

Assays:
Rattus norvegicus [1] = test: Antidiabetic activity in Zucker fa/fa rat assessed as decrease in free fatty acid levels at 100 mg/kg, po once daily for 7 days; assay type: functional, organism-based; design: dose 100 mg/kg
[2] = molecular target: Retinoic acid receptor RXR-alpha (Homo sapiens) (UniProt P19793); test: Activity at RXRalpha receptor up to 10 uM by transactivation assay
Chain of Retinoic acid receptor RXR-alpha (Homo sapiens) (P19793 whole entry): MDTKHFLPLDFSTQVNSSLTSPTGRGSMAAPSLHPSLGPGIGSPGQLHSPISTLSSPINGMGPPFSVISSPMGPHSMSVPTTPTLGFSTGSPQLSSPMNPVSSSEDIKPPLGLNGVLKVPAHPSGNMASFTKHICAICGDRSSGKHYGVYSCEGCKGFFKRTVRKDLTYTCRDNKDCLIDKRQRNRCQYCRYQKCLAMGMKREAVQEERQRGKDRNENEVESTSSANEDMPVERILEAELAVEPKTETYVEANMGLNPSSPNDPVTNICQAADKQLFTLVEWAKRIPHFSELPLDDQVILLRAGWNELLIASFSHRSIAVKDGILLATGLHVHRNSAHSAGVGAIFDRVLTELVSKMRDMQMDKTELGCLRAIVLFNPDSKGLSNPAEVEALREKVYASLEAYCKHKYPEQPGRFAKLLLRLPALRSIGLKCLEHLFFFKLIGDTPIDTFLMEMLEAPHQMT

[3] = molecular target: Retinoic acid receptor RXR-alpha (Homo sapiens) (UniProt P19793); test: Binding affinity to RXRalpha up to 10 uM
Rattus norvegicus [4] = test: Antidiabetic activity in Zucker fa/fa rat assessed as decrease in triglyceride levels at 15 mg/kg, po once daily for 7 days; assay type: functional, organism-based; design: dose 15 mg/kg
Cytochrome P450 2C19 = Cytochrome P450 2C19 (Homo sapiens, UniProt P33261); test: Inhibition of CYP2C19; assay type: ADME
Chain of Cytochrome P450 2C19 (P33261 whole entry): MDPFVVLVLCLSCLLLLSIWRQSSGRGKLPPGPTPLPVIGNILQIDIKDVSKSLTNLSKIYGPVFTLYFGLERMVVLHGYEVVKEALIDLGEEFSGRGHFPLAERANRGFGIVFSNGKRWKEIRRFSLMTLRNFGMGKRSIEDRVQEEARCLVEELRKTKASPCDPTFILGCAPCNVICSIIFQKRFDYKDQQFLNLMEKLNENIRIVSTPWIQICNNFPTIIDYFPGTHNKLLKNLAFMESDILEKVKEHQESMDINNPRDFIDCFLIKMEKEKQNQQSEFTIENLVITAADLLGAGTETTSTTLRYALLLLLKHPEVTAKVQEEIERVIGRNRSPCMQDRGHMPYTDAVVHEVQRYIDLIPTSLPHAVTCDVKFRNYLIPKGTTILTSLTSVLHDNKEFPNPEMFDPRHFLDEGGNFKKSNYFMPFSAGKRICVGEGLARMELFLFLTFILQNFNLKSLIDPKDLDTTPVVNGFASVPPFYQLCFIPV

Rattus norvegicus [5] = test: Toxicity in Sprague-Dawley rat assessed as hematocrit at 60 mg/kg, po once daily for 14 days; assay type: organism-based; design: dose 60 mg/kg, route oral; conditions: in vivo, 336 h
Mus musculus [6] = test: Antidiabetic activity in C57BLKS/J-m+/+Leprdb db/db mouse assessed as reduction in plasma glucose levels at 1 mg/kg, po once daily for 11 days relative to control; assay type: functional; design: scale not given: the % may be the effect or the level left
Rattus norvegicus [7] = test: Antidiabetic activity in Zucker fa/fa rat assessed as decrease in free fatty acid levels at 0.3 mg/kg, po once daily for 7 days; assay type: functional, organism-based; design: dose 0.3 mg/kg
[8] = AUC in Sprague-Dawley rat at 60 mg/kg, po once daily for 14 days; assay type: ADME, organism-based; design: dose 60 mg/kg, route oral; conditions: plasma
Rattus norvegicus [9] = test: Toxicity in Zucker fa/fa rat assessed as increase in heart weight at 10 mg/kg, po treated once daily for 7 days; assay type: organism-based; design: dose 10 mg/kg, route oral; conditions: in vivo, 168 h
Rattus norvegicus [10] = test: Antidiabetic activity in Zucker fa/fa rat assessed as decrease in free fatty acid levels at 15 mg/kg, po once daily for 7 days; assay type: functional, organism-based; design: dose 15 mg/kg
Rattus norvegicus [11] = test: Toxicity in Sprague-Dawley rat assessed as increase albumin/globulin levels at 60 mg/kg, po once daily for 14 days; assay type: organism-based; design: dose 60 mg/kg, route oral; conditions: in vivo, 336 h
Syrian golden hamster [12] = test: Antidiabetic activity in Syrian golden hamster assessed as reduction in cholesterol level at 3 mg/kg, po once daily for 9 days relative to control; assay type: functional, Mesocricetus auratus; design: scale not given: the % may be the effect or the level left
[13] = molecular target: T1, Peroxisome proliferator-activated receptor alpha (Homo sapiens, UniProt Q07869); test: Inhibition of human PPARalpha receptor by scintillation proximity assay
T1 sequence (Q07869 whole entry): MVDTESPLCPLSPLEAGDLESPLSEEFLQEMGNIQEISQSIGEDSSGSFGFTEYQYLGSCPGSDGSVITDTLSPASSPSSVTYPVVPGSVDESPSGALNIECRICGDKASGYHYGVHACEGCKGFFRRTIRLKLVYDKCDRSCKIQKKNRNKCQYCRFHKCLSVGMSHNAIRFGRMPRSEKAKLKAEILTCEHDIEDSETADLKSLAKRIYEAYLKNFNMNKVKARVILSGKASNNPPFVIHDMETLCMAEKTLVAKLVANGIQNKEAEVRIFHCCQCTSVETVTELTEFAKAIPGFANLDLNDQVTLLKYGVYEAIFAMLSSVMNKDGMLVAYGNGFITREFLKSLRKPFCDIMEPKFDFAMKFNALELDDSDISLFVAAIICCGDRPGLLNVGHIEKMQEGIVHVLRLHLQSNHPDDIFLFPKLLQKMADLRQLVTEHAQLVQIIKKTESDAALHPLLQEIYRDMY

[14] = AUC in high fat diet-fed streptozotocin-treated mouse at 30 mg/kg, po once daily for 12 days; assay type: ADME, organism-based; design: dose 30 mg/kg, route oral; conditions: plasma
Mus musculus [15] = test: Antidiabetic activity in high fat diet-fed streptozotocin-treated mouse assessed as reduction in plasma glucose levels at 5 mg/kg, po once daily for 12 days relative to control; assay type: functional; design: scale not given: the % may be the effect or the level left
[16] = molecular target: Thyroid hormone receptor alpha (Homo sapiens) (UniProt P10827); test: Activity at TRalpha receptor up to 10 uM by transactivation assay
Chain of Thyroid hormone receptor alpha (Homo sapiens) (P10827 whole entry): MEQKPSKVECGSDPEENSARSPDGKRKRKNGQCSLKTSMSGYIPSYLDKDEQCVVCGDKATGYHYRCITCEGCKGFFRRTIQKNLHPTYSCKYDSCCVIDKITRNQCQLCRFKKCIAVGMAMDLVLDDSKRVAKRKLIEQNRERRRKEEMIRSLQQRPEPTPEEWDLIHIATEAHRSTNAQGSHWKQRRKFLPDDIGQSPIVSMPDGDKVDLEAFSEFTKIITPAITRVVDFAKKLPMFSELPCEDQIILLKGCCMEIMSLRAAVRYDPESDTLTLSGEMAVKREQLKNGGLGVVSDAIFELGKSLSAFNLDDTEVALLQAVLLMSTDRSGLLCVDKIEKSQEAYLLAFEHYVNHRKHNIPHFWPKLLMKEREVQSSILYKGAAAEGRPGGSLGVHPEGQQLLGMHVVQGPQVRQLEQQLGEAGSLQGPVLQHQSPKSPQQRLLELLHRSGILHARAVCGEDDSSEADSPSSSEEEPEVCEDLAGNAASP

[17] = molecular target: Thyroid hormone receptor beta (Homo sapiens) (UniProt P10828); test: Binding affinity to TRbeta up to 10 uM
Chain of Thyroid hormone receptor beta (Homo sapiens) (P10828 whole entry): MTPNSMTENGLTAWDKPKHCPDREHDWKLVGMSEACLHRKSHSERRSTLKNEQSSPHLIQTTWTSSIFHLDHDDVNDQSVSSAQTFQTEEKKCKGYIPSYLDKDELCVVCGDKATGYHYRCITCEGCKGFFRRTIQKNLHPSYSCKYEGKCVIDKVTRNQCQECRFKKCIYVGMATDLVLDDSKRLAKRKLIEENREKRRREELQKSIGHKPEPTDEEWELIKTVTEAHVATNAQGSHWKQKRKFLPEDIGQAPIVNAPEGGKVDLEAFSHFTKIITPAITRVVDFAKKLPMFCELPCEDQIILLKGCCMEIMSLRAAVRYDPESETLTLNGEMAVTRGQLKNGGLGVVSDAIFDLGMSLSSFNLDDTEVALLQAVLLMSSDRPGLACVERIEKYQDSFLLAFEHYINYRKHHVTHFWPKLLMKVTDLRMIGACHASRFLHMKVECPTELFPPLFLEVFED

Rattus norvegicus [18] = test: Toxicity in Zucker fa/fa rat assessed as increase in heart weight at 15 mg/kg, po treated once daily for 7 days; assay type: organism-based; design: dose 15 mg/kg, route oral; conditions: in vivo, 168 h
Rattus norvegicus [19] = test: Toxicity in Sprague-Dawley rat assessed as increase in liver weight at 60 mg/kg, po once daily for 14 days; assay type: organism-based; design: dose 60 mg/kg, route oral; conditions: in vivo, 336 h
[20] = molecular target: Estrogen receptor beta (Homo sapiens) (UniProt Q92731); test: Binding affinity to ERbeta up to 10 uM
Chain of Estrogen receptor beta (Homo sapiens) (Q92731 whole entry): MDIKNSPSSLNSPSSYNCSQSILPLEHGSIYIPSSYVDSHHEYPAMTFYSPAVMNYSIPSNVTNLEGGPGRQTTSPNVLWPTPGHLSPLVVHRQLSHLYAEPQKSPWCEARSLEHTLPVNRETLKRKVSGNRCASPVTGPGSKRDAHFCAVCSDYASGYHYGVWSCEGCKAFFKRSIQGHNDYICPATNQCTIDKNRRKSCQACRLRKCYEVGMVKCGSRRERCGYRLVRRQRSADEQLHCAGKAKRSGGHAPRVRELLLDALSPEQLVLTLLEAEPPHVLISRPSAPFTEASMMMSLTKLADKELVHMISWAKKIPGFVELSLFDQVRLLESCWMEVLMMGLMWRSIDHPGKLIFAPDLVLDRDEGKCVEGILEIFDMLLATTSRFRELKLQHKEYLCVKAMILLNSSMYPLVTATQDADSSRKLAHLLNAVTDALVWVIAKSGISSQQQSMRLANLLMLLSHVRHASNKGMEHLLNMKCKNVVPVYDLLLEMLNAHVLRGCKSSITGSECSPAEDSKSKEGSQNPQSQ

[21] = AUC in C57BLKS/J-m+/+Leprdb db/db mouse at 10 mg/kg, po once daily for 11 days; assay type: ADME, organism-based; design: dose 10 mg/kg, route oral; conditions: plasma
[22] = molecular target: Estrogen receptor beta (Homo sapiens) (UniProt Q92731); test: Activity at ERbeta receptor up to 10 uM by transactivation assay
Syrian golden hamster [23] = test: Antidiabetic activity in Syrian golden hamster assessed as reduction in triglyceride level at 3 mg/kg, po once daily for 9 days relative to control; assay type: functional, Mesocricetus auratus; design: scale not given: the % may be the effect or the level left
[24] = AUC in Syrian golden hamster at 0.3 mg/kg, po once daily for 9 days; assay type: ADME, organism-based, Mesocricetus auratus; design: dose 0.3 mg/kg, route oral; conditions: plasma
Rattus norvegicus [25] = test: Toxicity in Sprague-Dawley rat assessed as increase bilirubin levels at 60 mg/kg, po once daily for 14 days; assay type: organism-based; design: dose 60 mg/kg, route oral; conditions: in vivo, 336 h
[26] = AUC in rat at 2 mg/kg, po; assay type: ADME, organism-based, Plasma; design: dose 2 mg/kg, route oral; conditions: plasma
[27] = AUC in Syrian golden hamster at 3 mg/kg, po once daily for 9 days; assay type: ADME, organism-based, Mesocricetus auratus; design: dose 3 mg/kg, route oral; conditions: plasma
[28] = molecular target: Glucocorticoid receptor (Homo sapiens) (UniProt P04150); test: Binding affinity to GR up to 10 uM
Chain of Glucocorticoid receptor (Homo sapiens) (P04150 whole entry): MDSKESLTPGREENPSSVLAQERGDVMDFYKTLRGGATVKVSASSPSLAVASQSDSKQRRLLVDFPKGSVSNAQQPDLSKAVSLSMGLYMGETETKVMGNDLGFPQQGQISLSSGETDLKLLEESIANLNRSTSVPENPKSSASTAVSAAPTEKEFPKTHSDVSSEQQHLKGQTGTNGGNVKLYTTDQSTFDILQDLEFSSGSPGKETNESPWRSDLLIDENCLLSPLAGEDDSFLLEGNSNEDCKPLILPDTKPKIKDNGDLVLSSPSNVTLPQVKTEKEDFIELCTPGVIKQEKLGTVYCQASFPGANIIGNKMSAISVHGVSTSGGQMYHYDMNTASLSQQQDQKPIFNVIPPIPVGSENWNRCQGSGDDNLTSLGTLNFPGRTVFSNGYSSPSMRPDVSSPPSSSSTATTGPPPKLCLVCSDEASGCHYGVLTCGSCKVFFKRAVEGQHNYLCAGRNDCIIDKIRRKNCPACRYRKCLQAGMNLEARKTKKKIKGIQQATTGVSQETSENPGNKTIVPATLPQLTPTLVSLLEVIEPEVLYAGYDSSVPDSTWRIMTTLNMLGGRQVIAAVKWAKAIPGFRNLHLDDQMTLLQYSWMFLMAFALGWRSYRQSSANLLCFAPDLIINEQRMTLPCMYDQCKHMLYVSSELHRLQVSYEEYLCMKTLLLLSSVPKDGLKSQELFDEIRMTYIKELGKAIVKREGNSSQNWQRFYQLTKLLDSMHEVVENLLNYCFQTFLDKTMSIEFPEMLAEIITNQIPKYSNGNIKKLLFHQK

[29] = Cmax in C57BLKS/J-m+/+Leprdb db/db mouse at 3 mg/kg, po once daily for 11 days; assay type: ADME, organism-based; design: dose 3 mg/kg, route oral; conditions: in vivo
[30] = molecular target: Estrogen receptor (Homo sapiens) (UniProt P03372); test: Binding affinity to ERalpha up to 10 uM
Chain of Estrogen receptor (Homo sapiens) (P03372 whole entry): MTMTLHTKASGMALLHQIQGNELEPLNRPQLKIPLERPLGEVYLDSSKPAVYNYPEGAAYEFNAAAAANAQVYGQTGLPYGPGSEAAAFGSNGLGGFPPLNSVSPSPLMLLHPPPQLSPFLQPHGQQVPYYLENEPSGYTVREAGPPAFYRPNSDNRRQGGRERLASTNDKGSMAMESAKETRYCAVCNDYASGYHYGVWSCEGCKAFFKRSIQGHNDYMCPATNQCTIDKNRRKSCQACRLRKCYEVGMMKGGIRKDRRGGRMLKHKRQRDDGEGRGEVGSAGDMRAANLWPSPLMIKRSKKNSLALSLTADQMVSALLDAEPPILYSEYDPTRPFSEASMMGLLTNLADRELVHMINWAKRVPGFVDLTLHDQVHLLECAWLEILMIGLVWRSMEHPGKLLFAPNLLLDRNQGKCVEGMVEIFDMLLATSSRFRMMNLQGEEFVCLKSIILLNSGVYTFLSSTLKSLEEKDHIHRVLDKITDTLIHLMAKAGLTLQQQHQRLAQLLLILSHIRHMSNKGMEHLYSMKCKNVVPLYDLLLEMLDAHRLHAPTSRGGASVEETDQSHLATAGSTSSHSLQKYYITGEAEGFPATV

Syrian golden hamster [31] = test: Antidiabetic activity in Syrian golden hamster assessed as reduction in triglyceride level at 0.3 mg/kg, po once daily for 9 days relative to control; assay type: functional, Mesocricetus auratus; design: scale not given: the % may be the effect or the level left
Mus musculus [32] = test: Antidiabetic activity in C57BLKS/J-m+/+Leprdb db/db mouse assessed as reduction in plasma glucose levels at 3 mg/kg, po once daily for 11 days relative to control; assay type: functional; design: scale not given: the % may be the effect or the level left
[33] = AUC in high fat diet-fed streptozotocin-treated mouse at 5 mg/kg, po once daily for 12 days; assay type: ADME, organism-based; design: dose 5 mg/kg, route oral; conditions: plasma
Rattus norvegicus [34] = test: Antidiabetic activity in Zucker fa/fa rat assessed as decrease in triglyceride levels at 0.03 mg/kg, po once daily for 7 days; assay type: functional, organism-based; design: dose 0.03 mg/kg
Cytochrome P450 2D6 = Cytochrome P450 2D6 (Homo sapiens, UniProt P10635); test: Inhibition of CYP2D6; assay type: ADME
Chain of Cytochrome P450 2D6 (P10635 whole entry): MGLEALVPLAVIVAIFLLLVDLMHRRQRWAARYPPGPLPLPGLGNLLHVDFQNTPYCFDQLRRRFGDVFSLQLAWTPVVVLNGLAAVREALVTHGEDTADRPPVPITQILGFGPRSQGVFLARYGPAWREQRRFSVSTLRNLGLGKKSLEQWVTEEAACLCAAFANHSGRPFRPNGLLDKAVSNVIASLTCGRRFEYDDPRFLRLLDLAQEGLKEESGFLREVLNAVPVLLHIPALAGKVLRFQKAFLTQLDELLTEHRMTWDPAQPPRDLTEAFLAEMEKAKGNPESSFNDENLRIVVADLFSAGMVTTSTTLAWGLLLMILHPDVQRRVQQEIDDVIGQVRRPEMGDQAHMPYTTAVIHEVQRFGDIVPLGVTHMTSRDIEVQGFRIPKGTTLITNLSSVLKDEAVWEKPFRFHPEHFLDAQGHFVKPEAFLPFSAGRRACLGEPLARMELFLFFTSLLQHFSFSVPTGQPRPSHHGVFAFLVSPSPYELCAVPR

Canis familiaris = test: Antidiabetic activity in Beagle dog assessed as reduction in total cholesterol level at 1 mg/kg, po once daily for 14 days relative to control; assay type: functional, Canis lupus familiaris; design: scale not given: the % may be the effect or the level left
Rattus norvegicus [35] = test: Toxicity in Sprague-Dawley rat assessed as increase in brown adipose tissue weight at 60 mg/kg, po once daily for 14 days; assay type: organism-based; design: dose 60 mg/kg, route oral; conditions: in vivo, 336 h
[36] = molecular target: Oxysterols receptor LXR-alpha (Homo sapiens) (UniProt Q13133); test: Binding affinity to LXRalpha up to 10 uM
Chain of Oxysterols receptor LXR-alpha (Homo sapiens) (Q13133 whole entry): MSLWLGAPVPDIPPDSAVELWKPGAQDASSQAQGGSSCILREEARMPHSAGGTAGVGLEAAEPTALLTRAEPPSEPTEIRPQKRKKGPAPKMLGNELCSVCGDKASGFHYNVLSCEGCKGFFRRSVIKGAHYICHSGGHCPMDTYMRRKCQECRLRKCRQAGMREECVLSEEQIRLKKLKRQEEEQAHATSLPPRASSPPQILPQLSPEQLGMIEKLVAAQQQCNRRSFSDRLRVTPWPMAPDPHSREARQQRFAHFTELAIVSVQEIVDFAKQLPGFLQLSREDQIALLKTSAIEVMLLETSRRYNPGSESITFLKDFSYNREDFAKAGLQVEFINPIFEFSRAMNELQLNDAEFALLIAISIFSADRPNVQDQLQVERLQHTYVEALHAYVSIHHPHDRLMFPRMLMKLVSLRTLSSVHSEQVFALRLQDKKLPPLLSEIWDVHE

Mus musculus [37] = test: Antidiabetic activity in C57BLKS/J-m+/+Leprdb db/db mouse assessed as reduction in plasma triglyceride levels at 1 mg/kg, po once daily for 11 days relative to control; assay type: functional; design: scale not given: the % may be the effect or the level left
[38] = AUC in C57BLKS/J-m+/+Leprdb db/db mouse at 1 mg/kg, po once daily for 11 days; assay type: ADME, organism-based; design: dose 1 mg/kg, route oral; conditions: plasma

CC[C@@H](Oc1cccc(Cn2c(C)c(C(=O)c3ccc(Cl)cc3)c3ccc(OC(F)(F)F)cc32)c1)C(=O)O
Activity (Rattus norvegicus [1]): Active
Activity [2]: inactive
Activity [3]: inactive
Activity (Rattus norvegicus [4]): Active
IC50 (Cytochrome P450 2C19): 91 µM
Activity (Rattus norvegicus [5]): -8%
Activity (Mus musculus [6]): 78%
Activity (Rattus norvegicus [7]): Active
AUC at 336 h [8]: 40 µM·h
Activity (Rattus norvegicus [9]): Toxic
Activity (Rattus norvegicus [10]): Active
Activity (Rattus norvegicus [11]): 45%
Activity (Syrian golden hamster [12]): 51.4%
IC50 [13]: 2.62 µM
AUC at 288 h [14]: 8.2 µM·h
Activity (Mus musculus [15]): 75%
Activity [16]: inactive
Activity [17]: inactive
Activity (Rattus norvegicus [18]): Non-toxic
Activity (Rattus norvegicus [19]): 127%
Activity [20]: inactive
AUC at 264 h [21]: 9.6 µM·h
Activity [22]: inactive
Activity (Syrian golden hamster [23]): 56.9%
AUC at 216 h [24]: 0.13 µM·h
Activity (Rattus norvegicus [25]): 48%
AUC [26]: 1.5 µM·h
AUC at 216 h [27]: 2.11 µM·h
Activity [28]: inactive
Cmax [29]: 5.4 µM
Activity [30]: inactive
Activity (Syrian golden hamster [31]): 10.1%
Activity (Mus musculus [32]): 98%
AUC at 288 h [33]: 2.7 µM·h
Activity (Rattus norvegicus [34]): Active
IC50 (Cytochrome P450 2D6): 7 µM
Activity (Canis familiaris): 12.8%
Activity (Rattus norvegicus [35]): 32%
Activity [36]: inactive
Activity (Mus musculus [37]): 75%
AUC at 264 h [38]: 1.9 µM·h
